Measured values from patent US11471474B2, “Pharmaceutical or cosmetic composition for preventing or treating hair loss or promoting hair growth” (priority 2018, dated 2022).

Test system: human hair dermal papilla cells (HHDPC)
Experiment: MTT cytotoxicity test of cADPR in human hair dermal papilla cells
Type: cell-based
Settings: cADPR in the concentration range according to the invention (0.01 to 2 ppm tested), 48 hours
Protocol: To confirm cytotoxicity of cADPR in human hair dermal papilla cells (HHDPC), MTT assay which is a representative method for measuring cytotoxicity and determines cytotoxicity by measuring mitochondrial reducing power by dehydrogenase action was conducted.
Human hair dermal papilla cells were cultured in an HDP kit medium (Human hair dermal papilla cell media kit) at 37° C. in a 5% CO2 incubator (manufactured by Thermo Fisher Scientific, USA).
The cultured cells were dispensed into a 24-well plate at a concentration of 3×10^4 cells/well. After 18 hours, the cADPR mixture solutions according to Preparation Examples 1-1 to 1-6 (0.01, 0.05, 0.1, 0.5, 1 and 2 ppm, respectively) were added to each well. Then, the cells were cultured in the 5% CO2 incubator at 37° C. for 48 hours. After 48 hours of the incubation, each well was washed once with PBS (phosphate buffered saline) solution, and added with 50 μl of 5 mg/mL MTT reagent (Sigma, USA) and 450 μl of fresh medium. The wells were incubated for 2.5 hours and then supernatants were removed.

With `N=c1c2ncn3c2ncn1[C@@H]1O[C@H](COP(=O)(O)OP(=O)(O)OC[C@H]2O[C@@H]3[C@H](O)[C@@H]2O)[C@@H](O)[C@H]1O` [cADPR, Cyclic ADP Ribose] the cytotoxicity was “no cytotoxicity was observed”.
